From article PMC10065799, “High-throughput profiling of sequence recognition by tyrosine kinases and SH2 domains using bacterial peptide display” (eLife, 2023)

T1: c-Abl kinase domain (Mus musculus, UniProt P00520)
T1 sequence (P00520 242-493 limits assumed): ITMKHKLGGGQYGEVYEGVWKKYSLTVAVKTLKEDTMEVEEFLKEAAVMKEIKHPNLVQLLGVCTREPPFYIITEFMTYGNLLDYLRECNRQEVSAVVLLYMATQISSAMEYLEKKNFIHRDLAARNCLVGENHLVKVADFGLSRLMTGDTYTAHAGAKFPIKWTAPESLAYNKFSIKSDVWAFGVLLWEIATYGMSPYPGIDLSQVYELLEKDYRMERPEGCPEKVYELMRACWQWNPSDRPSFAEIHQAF

B1: SrcTide (2014) peptide Ac-…-NH2 (peptide)
peptide: Ac-GAEEEIYGIFGAKKKG-NH2
B2: SrcTide (1995) peptide Ac-…-NH2 (peptide)
peptide: Ac-GAEEEIYGEFEAKKKG-NH2

What was measured:
EPHB1 kinase domain = assay: pTyr-Var library bacterial peptide display kinase screen (enrichment scores); format: biochemical, human; settings: for Screen: sheet EPHB1, effect of the variant peptide relative to its reference peptide in the pTyr-Var library screen (enrichment scores); for Screen (variant relative to reference peptide, measured in the pTyr-Var library screen): sheet "EPHB1", variant seq vs reference seq, bacterial peptide display enrichment
c-Src kinase domain [1] = target: T2, c-Src kinase domain (Homo sapiens, UniProt P12931); assay: as above; format: biochemical; settings: sheet "Src"
c-Abl kinase domain [2] = target: T1, c-Abl kinase domain; assay: as above; format: biochemical
EPHB2 kinase domain = assay: as above; format: biochemical, human; settings: sheet EPHB2;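 further: log2 fold change in enrichment of variant over reference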
Fer kinase domain = assay: as above; format: biochemical, mouse; settings: sheet "Fer"
c-Src kinase domain [3] = target: T2, c-Src kinase domain; assay: RP-HPLC assay to measure peptide phosphorylation kinetics; format: biochemical; settings: purified peptide substrate
Protocol: To validate the enrichment scores observed in the c-Src screening data, the phosphorylation rates were measured in vitro with the purified catalytic domain of c-Src and synthetic 11-residue peptides derived from sequences in the pTyr-Var library. […] Reactions were initiated by adding 1 mM ATP. At various time points, 100 μL aliquots were removed and quenched by the addition of EDTA to a final concentration of 25 mM. Each time point sample was analyzed by analytical RP-HPLC, monitoring absorbance at 214 nm. Forty μL of each time point was injected onto a C18 column (ZORBAX 300 SB-C18, 5 μm, 4.6x150 mm). The solvent system used was water with 0.1% trifluoroacetic acid (solvent A) and acetonitrile with 0.1% trifluoroacetic acid (solvent B). […] The fractional product peak area was plotted as a function of reaction time, and the initial linear regime of this plot was fitted to a straight line to determine a reaction rate. Rates were corrected for substrate and enzyme concentration. Reactions were done in triplicate or quadruplicate.

c-Abl kinase domain [4] = target: T1, c-Abl kinase domain; assay: ADP-Quest continuous fluorimetric kinase assay (Michaelis-Menten parameters and initial rates); format: biochemical; settings: c-Abl kinase domain 10 nM, 100 μM ATP, 37 °C, three to five replicates, error = standard error of global Michaelis-Menten fit
From the text: A fluorescence-based assay from Eurofins (ADP Quest) was used to measure the Michaelis-Menten kinetic parameters for phosphorylation of the consensus peptides by purified tyrosine kinase domains. In this assay, ADP production as a result of kinase activity is coupled to the production of resorufin, a fluorophore that emits signal at 590 nm. For all experiments, the assay reactions were set up as described in the provided assay kit protocol, in a 384 well plate format. The peptide solutions were serially diluted in 100 mM Tris, pH 8.0, and the kinases were diluted to 50 nM in buffer (10 mM HEPES, 100 mM NaCl, 1 mM TCEP, 5 mM MgCl2, 10% (v/v) glycerol). The final reaction mixtures contained 10 nM of kinase with 100 μM of ATP. […] Phosphorylation reaction progress was monitored by measuring fluorescence at excitation 530 nm and emission 590 nm every 2 min at 37 °C on a plate reader (BioTek Synergy Neo 2). The fluorescence units (RFU) were converted to μM ADP by comparison to a standard curve, and the initial rates were extracted from the linear regime of the reaction progress curves. Initial rates were also measured for samples containing each kinase but lacking a peptide substrate, to account for background ATP hydrolysis. This background rate was subtracted from the rates measured in the presence of peptide. […]

[5] = target: human c-Src kinase domain (residues 260-528) (human) (UniProt P12931)
[6] = variant peptide versus its reference peptide in the pTyr-Var library screen
[7] = fig5-data2, sheet "Abl", Screen for the variant/reference peptide pair, pTyr-Var library
[8] = effect of variant peptide relative to its reference peptide in the pTyr-Var library screen (enrichment scores)
[9] = value of the variant peptide against its reference peptide in the pTyr-Var library screen with Fer
[10] = effect of the variant peptide relative to its reference peptide in the pTyr-Var library screen
[11] = variant peptide relative to its reference peptide, pTyr-Var library screen enrichment
[12] = effect of the variant relative to its reference peptide in the pTyr-Var library screen

Molecule	Screen (EPHB1 kinase domain)	Screen (EPHB2 kinase domain; [8])	Screen (Fer kinase domain; [9])	other results
QNTGVYFDLFG [PTPN11_Y62_D61V_YF]	-3.507	-4.12	–	Screen (c-Src kinase domain [1]; [6]): 0.4058; Screen (c-Abl kinase domain [2]; [7]): 0.3099
SISFDYCRVPM [BST2_Y8_T4I_YF]	-2.179	-2.162	–	–
GREFIYVDPMQ [PDGFRA_Y574_H570R_YF]	-0.6275	-0.4123	-1.733	Screen (c-Src kinase domain [1]; [6]): -0.9351
RNEAFYDTFST [EFCAB3_Y372_S370A]	-3.139	-2.77	-0.7665	Screen (c-Src kinase domain [1]; [10]): -0.05343; Screen (c-Abl kinase domain [2]; [7]): 0.8648
KNEIFYQCPDQ [FBXO3_Y223_V221I]	–	-0.9058	-0.5331	–
FEDTLYTVLHR [UNC13D_Y61_A59T_YF]	–	–	–	Screen (Fer kinase domain; [11]): -0.9596; Screen (variant relative to reference peptide, measured in the pTyr-Var library screen) (EPHB1 kinase domain): -0.7483; Screen (c-Src kinase domain [1]; [6]): -0.1643; Screen (EPHB2 kinase domain; [12]): -1.461
FPLELYERVRI [PRKCG_Y312_M317I_YF]	-0.1732	–	0.4614	Screen (c-Abl kinase domain [2]; [7]): 2.263
ATKNDYWAMLA [WWOX_Y287_P282A]	–	–	–	Screen (variant relative to reference peptide, measured in the pTyr-Var library screen) (EPHB1 kinase domain): -0.006784; Screen (c-Abl kinase domain [2]; sheet "Abl", effect of variant peptide relative to its reference peptide in pTyr-Var library screen (enrichment)): -2.008; Screen (EPHB2 kinase domain; [12]): -0.4918
Ac-GPDESIYDMFPFKKKG-NH2 [Src Consensus (C-2S), Src Consensus variant with –2 Ser]	–	–	–	Phosphorylation Rate (c-Src kinase domain [3]): 5.171 s⁻¹
LSIQTYSALNF [DES_Y423_P419S]	-1.829	-1.403	-2.047	Screen (c-Src kinase domain [1]; [10]): -0.607
GHEFIYVDRMQ [PDGFRB_Y581_P584R_YF]	-3.432	-3.317	-2.31	Screen (c-Src kinase domain [1]; [6]): -0.3711
FCRITYDIFPF [INTS13_Y67_M66T_YF]	-0.0851	0.3565	–	Screen (c-Src kinase domain [1]; [10]): -0.3434; Screen (c-Abl kinase domain [2]; [7]): 1.32
PHQTIYGALMI [FGF23_Y70_S71G]	-3.192	-2.622	-2.622	Screen (c-Src kinase domain [1]; [10]): -0.7948
ADELEYSRTGL [MMUT_Y287_G284E]	–	-1.178	–	–
Ac-GAPEVIYATPGAKKKG-NH2 [AblTide (2014), previously reported c-Abl consensus substrate]	–	–	–	Km (c-Abl kinase domain [4]): 35 ± 8 µM; kcat (c-Abl kinase domain [4]): 2.5±0.2 s^–1
ADARMYGVLLW [PLP1_Y207_P211L]	–	-1.961	–	Screen (c-Src kinase domain [1]; [6]): -0.7224
Ac-WDLSEYSFKDP-NH2 [ITGA3_Y237_YF]	–	–	–	Phosphorylation Rate (c-Src kinase domain [3]): 0.555 s⁻¹
IFLGAYDRFLP [SLC22A5_Y486_V481I_YF]	–	-0.2361	–	Screen (c-Src kinase domain [1]; [6]): -0.1658
TLSGIYQFSIA [FOXL2_Y81_I84S_YF]	-3.13	-3.18	-1.302	Screen (c-Src kinase domain [1]; [10]): -0.1944
MKNDLYQTPLH [NFKB1_Y582_R578K]	–	-1.089	-0.9562	Screen (c-Src kinase domain [1]; [6]): -0.3133
HHIDFYKETTN [FGFR1_Y654_K656E_YF]	–	2.27	–	–
HNLNFYKKTTN [FGFR3_Y648_D646N_YF]	-1.233	-1.314	-1.085	Screen (c-Src kinase domain [1]; [10]): -1.956
SEEVNYATLTF [CLEC12B_Y7_T6N]	0.955	–	-0.6417	Screen (c-Src kinase domain [1]; [10]): -1.881; Screen (c-Abl kinase domain [2]; [7]): 1.648

Molecule	Screen (EPHB1 kinase domain)	Screen (EPHB2 kinase domain; [8])	Screen (Fer kinase domain; [9])	other results
Ac-AGQEKYSAMRD-NH2 [HRAS-Y64-E63K]	–	–	–	Phosphorylation Rate (c-Src kinase domain [3]): 0.027 s⁻¹
KKHIPYKEHKS [CSNK1G1_Y205_R206K]	-0.623	–	-0.8729	–
QSSALYEDCFL [ASS1_Y83_R86C_YF]	1.322	1.929	0.6979	Screen (c-Src kinase domain [1]; [10]): 1.263
WSFNLYDINKD [KCNIP3_Y174_A170S]	–	-1.005	-0.8483	Screen (c-Src kinase domain [1]; [10]): -1.011
LFEDHYLLGTS [ASS1_Y87_R86H_YF]	-1.664	-0.9482	–	–
ADGLEYSRTEL [MMUT_Y287_G291E]	–	-1.172	–	–
VFLGAYDCFLP [SLC22A5_Y486_R488C_YF]	–	1.473	–	Screen (Fer kinase domain; [11]): 1.979; Screen (variant relative to reference peptide, measured in the pTyr-Var library screen) (EPHB1 kinase domain): 1.419; Screen (c-Src kinase domain [1]; [6]): 0.189
FQEPVYSVAFS [TBL1X_Y509_H504Y_YF]	–	-0.3359	–	Screen (Fer kinase domain; [11]): -0.4973; Screen (variant relative to reference peptide, measured in the pTyr-Var library screen) (EPHB1 kinase domain): -0.4923; Screen (c-Src kinase domain [1]; [6]): -0.2752
ADARMYGDLPW [PLP1_Y207_V209D]	–	-2.321	–	Screen (c-Src kinase domain [1]; [6]): -1.273
HNLPIYEGFAL [ACTA1_Y168_V165L_YF]	-0.3324	-0.1826	-0.04484	Screen (c-Src kinase domain [1]; [10]): -0.1626; Screen (c-Abl kinase domain [2]; [7]): 0.278
LEHCQYVTQKV [ALDOB_Y204_E207Q]	-0.6551	-0.3412	-1.432	–
RWQQLYDTLNA [EIF3M_Y351_Q346R]	-0.05321	0.365	-0.4426	Screen (c-Src kinase domain [1]; [10]): -0.1
EVEPTYVVLFD [ERCC4_Y577_R576T_YF]	1.659	2.191	–	Screen (c-Src kinase domain [1]; [10]): 2.973
IVEELYAIPPD [PEAK1_Y797_S792I]	0.4436	-0.0205	0.2222	Screen (c-Src kinase domain [1]; [6]): -0.02431
Ac-LERFIYNREEL-NH2 [HLA-DPB1_Y59_F64L_YF, pTyr-Var library variant peptide, non-canonical c-Src substrate]	–	–	–	Phosphorylation Rate (c-Src kinase domain [3]): 0.258 s⁻¹; Screen (c-Src kinase domain [1]; [10]): 0.2529
Ac-GPDEPIYDMFPFKKKG-NH2 [Src Consensus (C-2P), Src Consensus variant with –2 Pro]	–	–	–	Phosphorylation Rate (c-Src kinase domain [3]): 12.667 s⁻¹
VFPIDYFFPPQ [AR_Y552_L548F_YF]	–	0.813	–	–
HSSPVYVGRVV [TGM2_Y219_R214H]	–	–	–	Screen (Fer kinase domain; [11]): 0.4894; Screen (variant relative to reference peptide, measured in the pTyr-Var library screen) (EPHB1 kinase domain): 1.553; Screen (c-Src kinase domain [1]; [6]): 0.1113
KSNSDYVDVLP [SH2D1B_Y127_N122K]	–	-0.9717	–	Screen (variant relative to reference peptide, measured in the pTyr-Var library screen) (EPHB1 kinase domain): -0.2971
RRIHNYRGHLW [VHL_Y112_S111N]	–	–	–	Screen (variant relative to reference peptide, measured in the pTyr-Var library screen) (EPHB1 kinase domain): -1.094; Screen (c-Src kinase domain [1]; [6]): -2.675
B1	–	–	–	KM (μM) of phosphorylation, Michaelis-Menten analysis, ADP-Quest assay [5]: 7 µM
B2	–	–	–	KM (μM) of phosphorylation, Michaelis-Menten analysis, ADP-Quest assay [5]: 64 µM
